Results reported in patent US20250163036A1, “DIPEPTIDYL PEPTIDASE 1 INHIBITOR POLYMORPH, PREPARATION METHOD AND USE THEREFOR” (HAISCO PHARMACEUTICALS PTE. LTD., priority 2022, published 2025).

Legend:
[1] = Stability, accelerated experiment; format: physicochemical; settings: 40° C.±2° C., 75% RH±5% RH
Description: The compounds used in this experiment were obtained from Example 4. Examination conditions: 40° C.±2° C., 75% RH±5% RH. Packaging: the inner packaging material is a double-layer medicinal low-density polyethylene bag, and the outer packaging material is a polyester/aluminum/polyethylene medicinal composite bag. In particular, the analysis method of purity is as follows: [table]

[2] = Stability, long-term experiment 3; format: physicochemical; settings: 2° C.-8° C.
Description: The compounds used in this experiment were obtained from Example 4. Examination conditions: 2° C.-8° C. Packaging: the inner packaging material is a double-layer medicinal low-density polyethylene bag, and the outer packaging material is a polyester/aluminum/polyethylene medicinal composite bag. In particular, the analysis method of purity is as follows: [table]

[3] = Stability, long-term experiment 2; format: physicochemical; settings: 30° C.±2° C., 65% RH±5% RH
Description: The compounds used in this experiment were obtained from Example 4. Examination conditions: 30° C.±2° C., 65% RH±5% RH. Packaging: the inner packaging material is a double-layer medicinal low-density polyethylene bag, and the outer packaging material is a polyester/aluminum/polyethylene medicinal composite bag. In particular, the analysis method of purity is as follows: [table]

[4] = Stability, long-term experiment 1; format: physicochemical; settings: 25° C.±2° C., 60% RH±5% RH
Description: The compounds used in this experiment were obtained from Example 4. Examination conditions: 25° C.±2° C., 60% RH±5% RH. Packaging: the inner packaging material is a double-layer medicinal low-density polyethylene bag, and the outer packaging material is a polyester/aluminum/polyethylene medicinal composite bag. In particular, the analysis method of purity is as follows: [table]

[5] = Solid stability without protection (XRPD, UPLC); format: physicochemical
Description: For the compounds used in this experiment, the crystal form B was obtained from Example 3, and the crystal form C was obtained from Example 5
The crystal forms B and C were placed at 25° C./60% RH and 40° C./75% RH without any protection, and then the physical and chemical stabilities thereof were tested by XRPD and UPLC, respectively.

[6] = Variable-temperature / heating XRPD test; format: physicochemical
Description: (initial temperature). […] In order to study the TGA weight loss of the crystal form B, a variable-temperature XRPD test was performed. […] (some diffraction peaks shifted at 120° C., and it is speculated that the shift may be caused by lattice expansion at high temperature). Therefore, it is speculated that the free base crystal form B is an anhydrous crystal form.
(peak temperatures). The sample was heated to 120° C. and cooled to room temperature, and then an XRPD test was performed. […] Based on the fact of crystal transformation of the sample upon heating in combination with the stepwise weight loss of the TGA, it is speculated that the crystal form C is a monohydrate.

[7] = Hygroscopicity by dynamic vapor sorption (DVS); format: physicochemical; settings: 25° C./80% RH
Description: The hygroscopicity of the crystal forms B and C was evaluated by a dynamic vapor sorption (DVS) instrument. The test collected the percentage change in the mass of the samples when the humidity changed (60% RH-95% RH-0% RH-95% RH or 0% RH-95% RH-0% RH) at a constant temperature of 25° C., wherein for the crystal form C, the test started at ambient humidity (about 60% RH), and for the crystal form B, the test started at 0% relative humidity (0% RH). The test results are shown in FIGS. 12 and 13, respectively.

[8] = Pharmacokinetic test in rats; format: in vivo, SD rats; settings: rat, intragastric administration 3 mg/kg
Description: 1.1 Experimental animals: male SD rats, about 220 g, 6-8 weeks old, 6 rats/compound. Purchased from Chengdu Ddossy Experimental Animals Co., Ltd.
1.2 Experimental design: on the day of the experiment, 6 SD rats were randomly grouped according to their body weights. The animals were fasted with water available for 12 to 14 h one day before the administration and were fed 4 h after the administration.
Vehicle for intravenous administration: 5% DMA+5% Solutol+90% Saline; vehicle for intragastric administration: 0.5% MC; control compound INS1007, namely compound 2 in patent WO 2015110826A1, was prepared with reference to the method of the patent.
Before and after the administration, 0.1 ml of blood was taken from the orbit of the animals under isoflurane anesthesia and placed in an EDTAK2 centrifuge tube. The blood was centrifuged at 5000 rpm and 4° C. for 10 min to collect the plasma. Blood sampling time points for the intravenous administration group: 0, 5 min, 15 min, 30 min, 1 h, 2 h, 4 h, 6 h, 8 h, and 24 h; and blood sampling time points for the intragastric administration group: 0, 5 min, 15 min, 30 min, 1 h, 2 h, 4 h, 6 h, 8 h, and 24 h. Before analysis and detection, all samples were stored at −80° C.

Structure (SMILES): Cn1c(=O)oc2ccc(-c3ccc(C[C@@H](C#N)NC(=O)[C@@H]4CNCCCO4)c(F)c3)cc21 [Crystal form B]
- Content ([1]; month 0): 100.5%
- Crystal form ([1]; month 0): form B
- Moisture ([1]; month 0): 0.2%
- Purity ([1]; month 0): 99.93%
- Content ([1]; month 1): 100.4%
- Crystal form ([1]; month 1): form B
- Moisture ([1]; month 1): 0.3%
- Purity ([1]; month 1): 99.87%
- Content ([1]; month 2): 101.1%
- Crystal form ([1]; month 2): form B
- Moisture ([1]; month 2): 0.2%
- Purity ([1]; month 2): 99.88%
- Content ([1]; month 3): 100.1%
- Crystal form ([1]; month 3): form B
- Moisture ([1]; month 3): 0.2%
- Purity ([1]; month 3): 99.87%
- Content ([1]; month 6): 101.3%
- Crystal form ([1]; month 6): form B
- Moisture ([1]; month 6): 0.2%
- Purity ([1]; month 6): 99.88%
- Content ([2]; month 0): 100.5%
- Crystal form ([2]; month 0): form B
- Moisture ([2]; month 0): 0.2%
- Purity ([2]; month 0): 99.93%
- Content ([2]; month 3): 100.5%
- Crystal form ([2]; month 3): form B
- Moisture ([2]; month 3): 0.3%
- Purity ([2]; month 3): 99.87%
- Content ([2]; month 6): 100.0%
- Crystal form ([2]; month 6): form B
- Moisture ([2]; month 6): 0.3%
- Purity ([2]; month 6): 99.89%
- Content ([2]; month 9): 101.6%
- Crystal form ([2]; month 9): form B
- Moisture ([2]; month 9): 0.2%
- Purity ([2]; month 9): 99.89%
- Content ([2]; month 12): 101.0%
- Crystal form ([2]; month 12): form B
- Moisture ([2]; month 12): 0.2%
- Purity ([2]; month 12): 99.89%
- Content ([3]; month 0): 100.5%
- Crystal form ([3]; month 0): form B
- Moisture ([3]; month 0): 0.2%
- Purity ([3]; month 0): 99.93%
- Content ([3]; month 3): 100.6%
- Crystal form ([3]; month 3): form B
- Moisture ([3]; month 3): 0.3%
- Purity ([3]; month 3): 99.87%
- Content ([3]; month 6): 101.6%
- Crystal form ([3]; month 6): form B
- Moisture ([3]; month 6): 0.2%
- Purity ([3]; month 6): 99.90%
- Content ([3]; month 9): 100.7%
- Crystal form ([3]; month 9): form B
- Moisture ([3]; month 9): 0.1%
- Purity ([3]; month 9): 99.90%
- Content ([3]; month 12): 99.2%
- Crystal form ([3]; month 12): form B
- Moisture ([3]; month 12): 0.2%
- Purity ([3]; month 12): 99.89%
- Content ([4]; month 0): 100.5%
- Crystal form ([4]; month 0): form B
- Moisture ([4]; month 0): 0.2%
- Purity ([4]; month 0): 99.93%
- Content ([4]; month 3): 100.6%
- Crystal form ([4]; month 3): form B
- Moisture ([4]; month 3): 0.3%
- Purity ([4]; month 3): 99.87%
- Content ([4]; month 6): 100.7%
- Crystal form ([4]; month 6): form B
- Moisture ([4]; month 6): 0.2%
- Purity ([4]; month 6): 99.90%
- Content ([4]; month 9): 101.6%
- Crystal form ([4]; month 9): form B
- Moisture ([4]; month 9): 0.1%
- Purity ([4]; month 9): 99.89%
- Content ([4]; month 12): 99.5%
- Crystal form ([4]; month 12): form B
- Moisture ([4]; month 12): 0.2%
- Purity ([4]; month 12): 99.88%
- Crystal form change ([5]; 25° C./60% RH, 1 month): No
- Purity ([5]; 25° C./60% RH, 1 month): 99.76
- Crystal form change ([5]; 25° C./60% RH, 1 week): No
- Purity ([5]; 25° C./60% RH, 1 week): 99.74
- Purity ([5]; 25° C./60% RH, 3 weeks): 99.74
- Crystal form change ([5]; 40° C./75% RH, 1 month): No
- Purity ([5]; 40° C./75% RH, 1 month): 99.63
- Crystal form change ([5]; 40° C./75% RH, 1 week): No
- Purity ([5]; 40° C./75% RH, 1 week): 99.65
- Purity ([5]; 40° C./75% RH, 3 weeks): 99.57
- Purity ([5]; initial value): 99.86
- Crystal form change in variable-temperature XRPD ([6]; purged with nitrogen for 20 minutes, heated to 120° C., or cooled to 30° C.): did not change
- Moisture sorption [7]: 0.19%

Structure (SMILES): Cn1c(=O)oc2ccc(-c3ccc(C[C@@H](C#N)NC(=O)[C@@H]4CNCCCO4)c(F)c3)cc21 [Compound I, (S)—N—((S)-1-cyano-2-(2-fluoro-4-(3-methyl-2-oxo-2,3-dihydrobenzo[d]oxazol-5-yl)phenyl)ethyl)-1,4-oxazepane-2-carboxamide]
- F [8]: >100%

Structure (SMILES): Cn1c(=O)oc2ccc(-c3ccc(C[C@@H](C#N)NC(=O)[C@@H]4CNCCCO4)cc3)cc21 [INS1007, reference compound]
- F [8]: 88.1%

Structure (SMILES): Cn1c(=O)oc2ccc(-c3ccc(C[C@@H](C#N)NC(=O)[C@@H]4CNCCCO4)c(F)c3)cc21 [Crystal form C]
- Crystal form change ([5]; 25° C./60% RH, 1 week): No
- Purity ([5]; 25° C./60% RH, 1 week): 99.70
- Crystal form change ([5]; 40° C./75% RH, 1 week): No
- Purity ([5]; 40° C./75% RH, 1 week): 99.71
- Purity ([5]; initial value): 99.87
- Crystal form change upon heating (XRPD) ([6]; heated to 120° C. and cooled to room temperature): transformed into the crystal form B
- Moisture sorption [7]: 0.97%
